Measurements as given in PubChem BioAssay (NCI).
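Method: 48-hour compound exposure of cells in 96-well plates, five concentrations, linear interpolation of endpoints. The concentration for 50% growth inhibition is given as GI50. TGI marks complete inhibition of growth.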

Columns and labels:
Assay in all cases: NCI-60 cell line screen, 48 h
COLO 205 colon = tested on: COLO 205 colon
K-562 leukemia = tested on: K-562 leukemia
LOX IMVI melanoma = tested on: LOX IMVI melanoma
NCI-H226 lung = tested on: NCI-H226 lung
OVCAR-8 ovarian = tested on: OVCAR-8 ovarian
SN12C renal = tested on: SN12C renal
UO-31 renal = tested on: UO-31 renal
SR leukemia = tested on: SR leukemia
DU-145 prostate = tested on: DU-145 prostate
PC-3 prostate = tested on: PC-3 prostate

SMILES | TGI (COLO 205 colon) | TGI (K-562 leukemia) | TGI (LOX IMVI melanoma) | TGI (NCI-H226 lung) | TGI (OVCAR-8 ovarian) | TGI (SN12C renal) | TGI (UO-31 renal) | TGI (SR leukemia) | GI50 (COLO 205 colon) | GI50 (DU-145 prostate) | TGI (DU-145 prostate) | GI50 (LOX IMVI melanoma) | GI50 (NCI-H226 lung) | GI50 (OVCAR-8 ovarian) | GI50 (PC-3 prostate) | TGI (PC-3 prostate) | GI50 (SN12C renal) | GI50 (SR leukemia) | GI50 (UO-31 renal) | GI50 (K-562 leukemia)
O=C(NCC(=O)N1CCOC1=O)OCc1ccccc1 | > 100 µM | > 100 µM | > 100 µM | > 100 µM | > 100 µM | > 100 µM | > 100 µM |  |  |  |  |  |  |  |  |  |  |  |  | 
Cc1cc(C)nc(NS(=O)(=O)c2ccc(NC(=O)c3cccn4c(=O)c5ccccc5nc34)cc2)n1 | > 100 µM | > 100 µM | 91.8 µM | 97.3 µM | 85.2 µM | > 100 µM | 74.7 µM | > 100 µM |  |  |  |  |  |  |  |  |  |  |  | 
CCCCCCCCCCCCCP(=O)(NCC(N)=O)OCC (configuration not stated) | 34 µM |  |  | 33.5 µM | 45.8 µM | 34.3 µM | 27.1 µM |  |  |  |  |  |  |  |  |  |  |  |  | 
CC(=O)OC(C)C(OC(C)=O)C(OC(C)=O)C(/C=C/C1CC=CC(=O)O1)OC(C)=O (configuration not stated) | 64.6 µM |  | > 100 µM | > 100 µM | 89.2 µM | 36.4 µM | > 100 µM | 53.4 µM | 22 µM | 18.8 µM | 43.1 µM | 29.1 µM | 42.6 µM | 26.8 µM | 73.2 µM | > 100 µM | 10.5 µM | 19.4 µM | 42.8 µM | 
COCCOCOC(C)(C)[C@H](CCOC(C)=O)O[Si](c1ccccc1)(c1ccccc1)C(C)(C)C | 13.7 µM | 28.8 µM | 27.6 µM | 19.8 µM | 75.2 µM | 29.5 µM | 36.9 µM | 14 µM |  |  |  |  |  |  |  |  |  |  |  | 
COc1cc(/C=C\c2ccncc2)cc(OC)c1OC | > 100 µM | > 100 µM | > 100 µM | > 100 µM | > 100 µM | > 100 µM | > 100 µM |  |  |  |  |  |  |  |  |  |  |  |  | 
CCC[CH2][Sn]([CH2]CCC)([O]C(=O)/C=C/c1ccccc1F)[O]C(=O)/C=C/c1ccccc1F | 2.41 µM | 1.4 µM | 0.906 µM | 2.04 µM | 2.2 µM | 2.29 µM | 2.06 µM | 2.1 µM | 0.907 µM |  |  | 0.289 µM | 0.775 µM | 0.98 µM |  |  | 1.03 µM | 0.305 µM | 0.775 µM | 0.232 µM
Cc1c2ccncc2c(C)c2c1c1cc(CO)ccc1n2C | 1.94 µM | 5.82 µM | 2.1 µM |  | 10.1 µM | 5.35 µM | 3.96 µM | 2.65 µM | 0.373 µM | 0.653 µM | 6.02 µM | 0.449 µM |  | 0.449 µM | 0.294 µM | 1.39 µM | 0.442 µM | 0.268 µM | 0.304 µM | 0.473 µM
COC(=O)/C(C#N)=C1\CCc2ccccc21 | > 100 µM | > 100 µM | > 100 µM | > 100 µM | > 100 µM | > 100 µM | > 100 µM |  |  |  |  |  |  |  |  |  |  |  |  | 
O=C(O)COc1ccc(C(=O)/C(SS/C(C(=O)c2ccc(OCC(=O)O)c(Cl)c2Cl)=C2\C=C(c3ccc(Br)cc3)SS2)=C2/C=C(c3ccc(Br)cc3)SS2)c(Cl)c1Cl | 14.9 µM | > 100 µM | 13.7 µM | 42.1 µM | > 76 µM | > 100 µM | 20.2 µM | 8.59 µM |  |  | > 100 µM |  |  |  |  |  |  |  |  | 
COc1ccc(-c2ccc(/C=N/n3c(COc4ccccc4Cl)n[nH]c3=S)o2)c([N+](=O)[O-])c1 | > 100 µM | > 100 µM | 45.8 µM | 50.9 µM | 55.4 µM | 82.4 µM | > 100 µM | 76.7 µM | 40.2 µM |  |  | 17.6 µM | 20.1 µM | 21.3 µM | 23.6 µM | 79.4 µM | 26.4 µM | 34.8 µM | 31.7 µM | 34.1 µM
O=C(CCc1nc(=S)[nH][nH]1)Nc1cccc(C(F)(F)F)c1 | > 100 µM | > 100 µM | > 100 µM | > 100 µM | > 100 µM | > 100 µM | > 100 µM | > 100 µM |  |  |  |  |  |  |  |  |  |  |  | 
O=C(O)[C@@H](NS(=O)(=O)c1ccc2ccccc2c1)c1ccccc1 | > 100 µM | > 100 µM | > 100 µM |  |  | > 100 µM | > 100 µM |  |  |  |  |  |  |  |  |  |  |  |  | 
CCC1C(=O)OCc2c1cc1n(c2=O)C(CC)c2c-1nc1ccccc1c2Cl (configuration not stated) | 37 µM | > 100 µM | > 100 µM | > 100 µM |  |  | > 100 µM |  |  |  |  |  |  |  |  |  |  |  |  | 
N/C(=N\c1nc2ccccc2s1)NC(=NC1CCCCC1)NC1CCCCC1 | 3.6 µM |  | 2.99 µM | 3.23 µM | 4.98 µM | 3.11 µM | 2.55 µM |  | 1.7 µM | 1.78 µM | 3.34 µM | 1.61 µM | 1.67 µM | 1.97 µM | 1.52 µM | 3.33 µM | 1.61 µM |  | 1.27 µM | 
Nc1ncnc2c1nnn2C1C=C(CO)C(O)C1O (configuration not stated) | > 50.6 µM | > 100 µM | > 55.3 µM | > 100 µM | > 100 µM | > 82.7 µM | > 100 µM |  |  |  |  |  |  |  |  |  |  |  |  | 
CC1=C(Cl)C[C@@H](/C(C)=C\Cl)O[C@@]1(O)C(Br)Br | 88.5 µM | > 100 µM | > 100 µM |  | > 100 µM | 37.2 µM | 72.7 µM | 84.6 µM |  |  | 49.9 µM |  |  |  |  | > 100 µM |  |  |  | 
COc1ccc2c(c1)C(=O)c1c-2c(N2CCNCC2)nc2ccccc12 | 3.28 µM | > 100 µM | 3.5 µM | 28.9 µM | 23.4 µM | 14.9 µM | 6.66 µM |  | 1.66 µM | 1.89 µM | 4.73 µM | 1.79 µM | 10.9 µM | 5.81 µM | 0.267 µM | 8.67 µM | 3.91 µM |  | 2.29 µM | 2.64 µM
CN1CCN(c2cc3nc4ccccc4n(-c4ccc(Cl)cc4)c-3cc2=N)CC1 | > 100 µM | 23.5 µM | 36.6 µM | > 100 µM | 38.4 µM | 41.4 µM | > 100 µM |  | > 100 µM | 37.8 µM | > 100 µM | 15.7 µM | 60.7 µM | 13.7 µM | 16.1 µM | 86.8 µM | 19.4 µM |  | 29.2 µM | 0.356 µM
